From US6875752B2, “Uridine derivatives as antibiotics” (Aventis Pharma S.A., priority 2001, dated 2005)

What was measured:
Assay in all cases: Method of dilutions in a liquid medium (M.I.C.)
Type in all cases: cell-based
[1] = tested on: S. pyogenes; conditions: S. pyogenes strains; incubation twenty-four hours at 37° C.; result in words only
Description: (§1) Detail of excipient starch, talc, magnesium stearate. Pharmacological Study of the Products of the Invention Method of Dilutions in a Liquid Medium
(§2) A series of tubes is prepared in which the same quantity of sterile nutritive medium is distributed. Increasing quantities of the product to be studied are distributed into each tube, then each tube is seeded with a bacterial strain. After incubation for twenty-four hours in a heating chamber at 37° C., the growth inhibition is evaluated by transillumination, which allows the minimal inhibitory concentrations (M.I.C.) to be determined, expressed in micrograms/cm^3.

[2] = tested on: E. faecium; conditions: E. faecium strains; incubation twenty-four hours at 37° C.; result in words only
Description: as §1, §2

[3] = tested on: S. aureus; conditions: S. aureus strains; incubation twenty-four hours at 37° C.; result in words only
Description: as §1, §2

Measured: activity (growth inhibition, minimal inhibitory concentrations M.I.C.)

CCCCCCCCCCCCCCCC(=O)NC[C@@H](O[C@@H]1O[C@H](CN)[C@@H](O)[C@H]1O)[C@@H]1C[C@@H](O)[C@H](n2ccc(=O)[nH]c2=O)O1 [Example 1, 1-[5-O-(5-amino-5-deoxy-β-D-ribofuranosyl)-3,6-dideoxy-6-[(1-oxohexadecyl)amino]-β-D-ribo-hexofuranosyl]-2,4-(1H,3H)-pyrimidinedione]
good activity: all assays above
